Assay results from ChEMBL document CHEMBL5543091, “Exploring structural determinants of neuroprotection bias on novel glypromate conjugates with bioactive amines” (2024).
Values joined by “and” are separate entries in the source; they are usually repeats but may differ in a detail not shown here. Equal values may be shown once. Active and inactive are the calls of the source. The rule behind the calls is not given here.

Tests used:
SH-SY5Y [1] = experiment: Cytotoxicity against differentiated human SH-SY5Y cells assessed as reduction in cell viability at 100 uM measured after 48 hrs by MTT reduction assay relative to control; assay type: functional
SH-SY5Y [2] = experiment: Cytotoxicity against non-differentiated human SH-SY5Y cells assessed as reduction in cell viability measured after 24 hrs by MTT reduction assay relative to control; assay type: functional; set-up: concentration or dose not given beside the values
SH-SY5Y [3] = experiment: Neuroprotective activity against Amyloid beta(25 to 35)-induced cell injury in non-differentiated human SH-SY5Y cells assessed as reduction in formation of protein aggregates at 100 uM incubated for 24 hrs by ThT fluorescence assay; assay type: functional; set-up: scale not given: the % may be the effect or the level left
SH-SY5Y [4] = experiment: Neuroprotective activity against 6-OHDA-induced cytotoxicity in differentiated human SH-SY5Y cells at 100 uM incubated for 48 hrs followed by exposure to 6-OHDA by MTT reduction assay (reference value: 61.50+/-7.43%); assay type: functional; set-up: scale not given: the % may be the effect or the level left
SH-SY5Y [5] = experiment: Neuroprotective activity against 6-OHDA-induced cytotoxicity in differentiated human SH-SY5Y cells at 100 uM incubated for 48 hrs followed by exposure to 6-OHDA in presence of glypromate by MTT reduction assay; assay type: functional, cell-based
SH-SY5Y [6] = experiment: Neuroprotective activity against 6-OHDA-induced cytotoxicity in differentiated human SH-SY5Y cells at 100 uM incubated for 48 hrs followed by exposure to 6-OHDA by MTT reduction assay; assay type: functional, cell-based
SH-SY5Y [7] = experiment: Neuroprotective activity in Amyloid beta(25 to 35)-induced non-differentiated human SH-SY5Y cells assessed as fold increase in protein aggregation reduction 100 uM incubated for 24 hrs by ThT fluorescence assay; assay type: functional
SH-SY5Y [8] = experiment: Neuroprotective activity against Amyloid beta(25 to 35)-induced cell injury in non-differentiated human SH-SY5Y cells assessed as reduction in formation of protein aggregates at 100 uM incubated for 24 hrs by fluorescence microscopy based analysis; assay type: functional
SH-SY5Y [9] = experiment: Neuroprotective activity against Amyloid beta(25 to 35)-induced cell injury in non-differentiated human SH-SY5Y cells assessed as reduction in formation of protein aggregates at 100 uM incubated for 24 hrs in presence of glypromate by ThT fluorescence assay; assay type: functional; set-up: scale not given: the % may be the effect or the level left
SH-SY5Y [10] = experiment: Neuroprotective activity against 6-OHDA-induced cytotoxicity in differentiated human SH-SY5Y cells at 100 uM incubated for 48 hrs followed by exposure to 6-OHDA in presence of memantine by MTT reduction assay; assay type: functional, cell-based

`COC(=O)CC[C@H](NC(=O)[C@@H]1CCCCN1C(=O)CN(C)C)C(=O)NC12CC3CC(C)(CC(C)(C3)C1)C2` gave an Activity (SH-SY5Y [1]) of under 25% and an Activity (SH-SY5Y [2]) of under 85%.
With `COC(=O)[C@H](CCC(=O)N[C@@H]1CCc2ccccc21)NC(=O)[C@@H]1CCCCN1C(=O)CN.O=C(O)C(F)(F)F` the Activity (SH-SY5Y [2]) was 89.37%.
With `COC(=O)[C@H](CCC(=O)NC12CC3CC(CC(C3)C1)C2)NC(=O)[C@@H]1CCCN1C(=O)CN(C)C` the Activity (SH-SY5Y [2]) was 86.22%.
For `COC(=O)CC[C@H](NC(=O)[C@@H]1CCCN1C(=O)CNC(=O)OC(C)(C)C)C(=O)NC12CC3CC(CC(C3)C1)C2`, the Activity (SH-SY5Y [3]) was 80.35% and the Activity (SH-SY5Y [2]) was 89.28%.
`COC(=O)CC[C@H](NC(=O)[C@@H]1CCCCN1C(=O)CN)C(=O)N[C@@H]1CCc2ccccc21.O=C(O)C(F)(F)F` gave an Activity (SH-SY5Y [1]) of 98.85%, an Activity (SH-SY5Y [3]) of 129.25% and an Activity (SH-SY5Y [2]) of 94.96%.
`COC(=O)[C@H](CCC(=O)NC12CC3CC(C)(CC(C)(C3)C1)C2)NC(=O)[C@@H]1CCCCN1C(=O)CN.O=C(O)C(F)(F)F` gave an Activity (SH-SY5Y [1]) of under 25% and an Activity (SH-SY5Y [2]) of under 85%.
`COC(=O)[C@H](CCC(=O)NC12CC3CC(CC(C3)C1)C2)NC(=O)[C@@H]1CCCCN1C(=O)CNC(=O)OC(C)(C)C` was tested, and the Activity (SH-SY5Y [1]) was 91.13%, the Activity (SH-SY5Y [3]) was 127.26% and the Activity (SH-SY5Y [2]) was 92.96%.
For `COC(=O)[C@H](CCC(=O)N[C@@H]1CCc2ccccc21)NC(=O)[C@@H]1CCCCN1C(=O)CNC(=O)OC(C)(C)C`, the Activity (SH-SY5Y [3]) was 120.77% and the Activity (SH-SY5Y [2]) was 96.69%.
`COC(=O)CC[C@H](NC(=O)[C@@H]1CCCCN1C(=O)CNC(=O)OC(C)(C)C)C(=O)NC12CC3CC(C)(CC(C)(C3)C1)C2` showed an Activity (SH-SY5Y [1]) of 94.5% and an Activity (SH-SY5Y [2]) of under 85%.
`COC(=O)CC[C@H](NC(=O)[C@@H]1CCCCN1C(=O)CNC(=O)OC(C)(C)C)C(=O)N[C@@H]1CCc2ccccc21` gave an Activity (SH-SY5Y [1]) of 99.35%, an Activity (SH-SY5Y [3]) of 120.05% and an Activity (SH-SY5Y [2]) of 97.28%.
Work on `COC(=O)CC[C@H](NC(=O)[C@@H]1CCCCN1C(=O)CN(C)C)C(=O)NC12CC3CC(CC(C3)C1)C2` yielded an Activity (SH-SY5Y [2]) of 93.57%.
`COC(=O)[C@H](CCC(=O)N[C@@H]1CCc2ccccc21)NC(=O)[C@@H]1CCCN1C(=O)CNC(=O)OC(C)(C)C` was tested, and the Activity (SH-SY5Y [2]) was under 85%.
For `COC(=O)[C@H](CCC(=O)NC12CC3CC(CC(C3)C1)C2)NC(=O)[C@@H]1CCCCN1C(=O)CN.O=C(O)C(F)(F)F`, the Activity (SH-SY5Y [2]) was 87.9%.
`COC(=O)CC[C@H](NC(=O)[C@@H]1CCCN1C(=O)CN(C)C)C(=O)NC12CC3CC(C)(CC(C)(C3)C1)C2` was tested, and the Activity (SH-SY5Y [1]) was 103.96%, the Activity (SH-SY5Y [2]) was under 85% and the Activity (SH-SY5Y [4]) was 70.93%.
Molecule `COC(=O)[C@H](CCC(=O)NC12CC3CC(CC(C3)C1)C2)NC(=O)[C@@H]1CCCN1C(=O)CN.O=C(O)C(F)(F)F` has an Activity (SH-SY5Y [2]) of 89.04%.
`COC(=O)CC[C@H](NC(=O)[C@@H]1CCCN1C(=O)CN(C)C)C(=O)N[C@@H]1CCc2ccccc21` was tested, and the Activity (SH-SY5Y [1]) was 104.91%, the Activity (SH-SY5Y [3]) was 69.21% and the Activity (SH-SY5Y [2]) was 93.5%.
In the case of `COC(=O)[C@H](CCC(=O)NC12CC3CC(CC(C3)C1)C2)NC(=O)[C@@H]1CCCCN1C(=O)CN(C)C`, the Activity (SH-SY5Y [1]) is reported as under 25% and the Activity (SH-SY5Y [2]) is reported as under 85%.
For `CC12CC3CC(C)(C1)CC(N)(C3)C2`, the Activity (SH-SY5Y [5]) was “inactive” and the Activity (SH-SY5Y [6]) was “inactive”.
Work on `COC(=O)[C@H](CCC(=O)NC12CC3CC(CC(C3)C1)C2)NC(=O)[C@@H]1CCCN1C(=O)CNC(=O)OC(C)(C)C` yielded an Activity (SH-SY5Y [2]) of under 85%.
In the case of `COC(=O)[C@H](CCC(=O)N[C@@H]1CCc2ccccc21)NC(=O)[C@@H]1CCCN1C(=O)CN.O=C(O)C(F)(F)F`, the “fold change (FC)” value (SH-SY5Y [7]) is reported as 3.6, the Activity (SH-SY5Y [1]) is reported as 98.02% and the Activity (SH-SY5Y [3]) is reported as 57.42%. For the same molecule, the Activity (SH-SY5Y [2]) was 94.4% and the Activity (SH-SY5Y [8]) was “Active”.
For `N[C@@H]1CCc2ccccc21`, the Activity (SH-SY5Y [3]) was 38% and the Activity (SH-SY5Y [9]) was 79.68%.
Work on `COC(=O)[C@H](CCC(=O)NC12CC3CC(C)(CC(C)(C3)C1)C2)NC(=O)[C@@H]1CCCN1C(=O)CNC(=O)OC(C)(C)C` yielded an Activity (SH-SY5Y [2]) of under 85%.
Molecule `COC(=O)CC[C@H](NC(=O)[C@@H]1CCCN1C(=O)CN(C)C)C(=O)NC12CC3CC(CC(C3)C1)C2` has an Activity (SH-SY5Y [1]) of 107.67%, an Activity (SH-SY5Y [3]) of 79.52% and an Activity (SH-SY5Y [2]) of 91.14%. It also gave an Activity (SH-SY5Y [4]) of 68.03%.
In the case of `COC(=O)CC[C@H](NC(=O)[C@@H]1CCCCN1C(=O)CN)C(=O)NC12CC3CC(C)(CC(C)(C3)C1)C2.O=C(O)C(F)(F)F`, the Activity (SH-SY5Y [1]) is reported as under 25% and the Activity (SH-SY5Y [2]) is reported as under 85%.
Work on `COC(=O)[C@H](CCC(=O)NC12CC3CC(C)(CC(C)(C3)C1)C2)NC(=O)[C@@H]1CCCN1C(=O)CN.O=C(O)C(F)(F)F` yielded an Activity (SH-SY5Y [2]) of under 85%.
`COC(=O)[C@H](CCC(=O)NC12CC3CC(C)(CC(C)(C3)C1)C2)NC(=O)[C@@H]1CCCCN1C(=O)CNC(=O)OC(C)(C)C` showed an Activity (SH-SY5Y [1]) of 91.53% and an Activity (SH-SY5Y [2]) of under 85%.
`COC(=O)CC[C@H](NC(=O)[C@@H]1CCCCN1C(=O)CN(C)C)C(=O)N[C@@H]1CCc2ccccc21` was tested, and the Activity (SH-SY5Y [1]) was 94.5% and the Activity (SH-SY5Y [2]; 24 h) was 95.12% and <85%.
Molecule `COC(=O)[C@H](CCC(=O)N[C@@H]1CCc2ccccc21)NC(=O)[C@@H]1CCCN1C(=O)CN(C)C` has an Activity (SH-SY5Y [1]) of 99.49%, an Activity (SH-SY5Y [3]) of 81.51% and an Activity (SH-SY5Y [2]) of 99.51%.
For `COC(=O)CC[C@H](NC(=O)[C@@H]1CCCN1C(=O)CN)C(=O)N[C@@H]1CCc2ccccc21.O=C(O)C(F)(F)F`, the “fold change (FC)” value (SH-SY5Y [7]) was 3.2, the Activity (SH-SY5Y [1]) was 98.44% and the Activity (SH-SY5Y [3]) was 62.25%. For the same molecule, the Activity (SH-SY5Y [2]) was 87.33%, the Activity (SH-SY5Y [4]) was 65.5% and the Activity (SH-SY5Y [8]) was “Active”.
`COC(=O)[C@H](CCC(=O)NC12CC3CC(C)(CC(C)(C3)C1)C2)NC(=O)[C@@H]1CCCCN1C(=O)CN(C)C` showed an Activity (SH-SY5Y [1]) of under 25% and an Activity (SH-SY5Y [2]) of under 85%.
For `NCC(=O)N1CCC[C@H]1C(=O)N[C@@H](CCC(=O)O)C(=O)O`, the Activity (SH-SY5Y [10]) was “inactive” and the Activity (SH-SY5Y [3]) was 87.78%.
`COC(=O)CC[C@H](NC(=O)[C@@H]1CCCN1C(=O)CN)C(=O)NC12CC3CC(C)(CC(C)(C3)C1)C2.O=C(O)C(F)(F)F` showed an Activity (SH-SY5Y [1]) of 97.3% and an Activity (SH-SY5Y [2]) of under 85%.
Molecule `COC(=O)CC[C@H](NC(=O)[C@@H]1CCCCN1C(=O)CNC(=O)OC(C)(C)C)C(=O)NC12CC3CC(CC(C3)C1)C2` has an Activity (SH-SY5Y [1]) of 101.45%, an Activity (SH-SY5Y [3]) of 133.03% and an Activity (SH-SY5Y [2]) of 92.73%.
`COC(=O)[C@H](CCC(=O)NC12CC3CC(C)(CC(C)(C3)C1)C2)NC(=O)[C@@H]1CCCN1C(=O)CN(C)C` was tested, and the Activity (SH-SY5Y [1]) was 99.94%, the Activity (SH-SY5Y [2]) was under 85% and the Activity (SH-SY5Y [4]) was 65.16%.
For `COC(=O)CC[C@H](NC(=O)[C@@H]1CCCN1C(=O)CN)C(=O)NC12CC3CC(CC(C3)C1)C2.O=C(O)C(F)(F)F`, the Activity (SH-SY5Y [1]) was 109.73%, the Activity (SH-SY5Y [2]) was 94.84% and the Activity (SH-SY5Y [4]) was 67.28%.
For `COC(=O)[C@H](CCC(=O)N[C@@H]1CCc2ccccc21)NC(=O)[C@@H]1CCCCN1C(=O)CN(C)C`, the Activity (SH-SY5Y [2]; 24 h) was 97.03% and <85%.
For `COC(=O)CC[C@H](NC(=O)[C@@H]1CCCN1C(=O)CNC(=O)OC(C)(C)C)C(=O)N[C@@H]1CCc2ccccc21`, the Activity (SH-SY5Y [2]) was under 85%.
For `COC(=O)CC[C@H](NC(=O)[C@@H]1CCCCN1C(=O)CN)C(=O)NC12CC3CC(CC(C3)C1)C2.O=C(O)C(F)(F)F`, the Activity (SH-SY5Y [1]) was 97.33%, the Activity (SH-SY5Y [3]) was 132.48% and the Activity (SH-SY5Y [2]) was 92.68%.
`COC(=O)CC[C@H](NC(=O)[C@@H]1CCCN1C(=O)CNC(=O)OC(C)(C)C)C(=O)NC12CC3CC(C)(CC(C)(C3)C1)C2` showed an Activity (SH-SY5Y [2]) of under 85%.
